Measurements taken from publication PMC8037406, “Symbiotic NCR Peptide Fragments Affect the Viability, Morphology and Biofilm Formation of Candida Species” (International Journal of Molecular Sciences, 2021).
Read-outs that look alike come from different tables or passages of the source. Where a SMILES comes first, the peptide text is derived from it.

How the values were obtained:
C. albicans ATCC 10231 = assay: Yeast-hypha morphology, bright-field microscopy; type: cell-based, Candida albicans; details: 3.12 µM peptide, 48 h, 1/8AIM medium, sub-lethal concentration
Excerpt: (§1) As hyphae formation is an important virulence factor, we investigated how the broad range activity peptides, NCR335C17–33, NCR169C17–38 and NCR169C17–38ox affect the morphological switch of C. albicans ATCC 10231 and C. tropicalis between the hyphal and yeast growth forms at sub-lethal concentrations (Figure 1). […] However, not only the morphology changed, but the cell number also declined, particularly in the latter case.
(§2) To induce morphological change of C. albicans and C. tropicalis YNB medium was changed for eight-fold diluted AIM-V+AlbuMAX (BSA) medium (Gibco, Thermo Fisher Scientific, Dublin, Ireland) referred to as 1/8AIM in the text.
(§3) Bright-field microscopy. The morphology of C. albicans ATCC 10231 and C. tropicalis cells was examined after 48 h incubation with the selected peptides (NCR335C17–33 and NCR169C17–38) by Zeiss Axio Observer inverted microscope (Carl Zeiss AG, Jena, Germany). The concentration of the NCR335C17–33 was 1.56 and 3.12 µM, NCR169C17–38 1.56 or 3.12 µM while NCR169C17–38ox 0.78 or 3.12 µM, the initial cell concentration was set to 4 × 10^4 cell/mL. Cells cultivated without peptides were used as control.

[1] = tested on: C. albicans SC 5314 biofilm; assay: Biofilm formation assay, XTT; type: cell-based, Candida albicans; details: 72 h, 37 °C, 5 % CO2, 1/8AIM medium, p ≤ 0.0001
[2] = tested on: C. albicans ATCC 10231 biofilm; assay: Morphology of biofilm-located cells, scanning electron microscopy; type: cell-based, Candida albicans; details: SEM, 72 h, 37 °C, sub-lethal concentrations
[3] = tested on: C. tropicalis CBS 94 biofilm; assay: as above; type: cell-based, Candida tropicalis; details: SEM, 72 h, 37 °C, 1.56 µM peptide
C. auris = details: for reduction of MIC in the synergistic combination: compared with single use
Procedure: Amphotericin B, due to its high toxicity was not included in this assay.
The effects of the different combinations of fluconazole and NCR335C17–33, NCR169C17–38 or NCR169C17–38ox were determined by standard checkerboard titration method. The fluconazole was tested in a concentration range from 6.25 to 75 µM, NCR169C17–38 and NCR169C17–38ox from 0.78 to 12.50 µM, NCR335C17–33 from 1.56 to 25 µM. The initial cell concentration in each well was 4 × 10^4 cell/mL. After the incubation for 72 h at 30 °C, the optical density of the cultures was detected at 620 nm in SPECTROstar Nano plate reader (BMG LabTech, Offenburg, Germany). The inhibitory concentrations were determined for each compound alone and in combinations. The experiments were carried out at least three times. The effect of combinations was evaluated by fractional inhibitory concentration (FIC) index. FIC = FICA + FICB. FICA = (MICA in combination)/(MICA alone); FICB = (MICB in combination)/(MICB alone)

C. tropicalis CBS 94 = assay: Yeast-hypha morphology, bright-field microscopy; type: cell-based, Candida tropicalis; details: 1.56 µM peptide, 48 h, 1/8AIM medium
Excerpt: as §1, §2, §3

[4] = tested on: C. albicans SZMC 1458 biofilm; assay: Biofilm formation assay, XTT; type: cell-based, Candida albicans; details: 72 h, 37 °C, 5 % CO2, 1/8AIM medium, p ≤ 0.0001
[5] = tested on: C. albicans ATCC 10231 biofilm; assay: Biofilm formation assay, XTT; type: cell-based, Candida albicans; details: 72 h, 37 °C, 5 % CO2, 1/8AIM medium, p ≤ 0.0001
[6] = tested on: Candida parapsilosis CBS 604; assay: microbe, parasite or virus in culture; type: cell-based; details: micro-dilution, YNB medium, 4 × 10^4 cell/mL, 48 h, 30 °C, OD 620 nm; MIC = growth inhibition ≥90%; peptides 25 to 1.56 µM, fluconazole 200 to 0.78 µM; three biological repeats in triplicates; note: key: -: no growth inhibition was observed
Procedure: (§4) The antifungal activity of all the 14 peptides was tested against the following opportunistic human pathogen Candida species and strains: C. albicans strains ATCC 10231, SC 5314 and SZMC 1458, C. auris 0381, C. glabrata CBS 138, C. parapsilosis CBS 604 and C. tropicalis CBS 94.
(§5) All the Candida strains (Table 4) were grown overnight in YPD medium (1% pepton, 1% dextrose, 0.5% yeast extract) at 30 °C in water bath shaker prior to each experiments. The cells were harvested by centrifugation (5 min, 3000× g) washed twice with sterile distilled water and suspended in 5-fold diluted Difco Yeast Nitrogen Base w/o Amino Acids medium (Becton, Dickinson and Company, Sparks, MD, USA) supplemented with 1% dextrose, referred to as YNB medium in the text. Cells were counted in Bürker chamber and diluted to the proper concentration.
(§6) The growth inhibition of the peptides listed in Table 1 was tested in 96-well microtiter plates on Candida strains. The minimal inhibitory concentration (MIC) was determined with the micro-dilution method by adding 5 µL serially two-fold-diluted peptide solution to 95 µL of cell suspension (4 × 10^4 cell/mL) in YNB medium. After 48 h of incubation at 30 °C the optical density of the cultures was measured at 620 nm in SPECTROstar Nano plate reader (BMG LabTech, Offenburg, Germany). Minimal inhibitory concentration was defined as growth inhibition ≥90% compared to 100% growth of the untreated control. The experiments were carried out in three biological repeats always in triplicates.

Candida cells = assay: Fungicide effect, spotting of treated cells on solid YPD medium; type: cell-based, Candida species; details: 1.56–25 µM, 24 h treatment, dilutions spotted on solid YPD medium, 48 h, 30 °C
Procedure: To determine whether the inhibitory effect of the peptides is generated by fungistatic or fungicide action, the Candida cells were treated with the peptides in the same concentration range (1.56–25 µM) as in the growth inhibition assay. After 24 h 5 µL sample from the untreated control cells and from the peptide treated cells was added to 95 µL water and diluted further 10- and 100-fold. From each dilution, 5 µL was placed on solid medium and the growth of the control and peptide treated cells was compared after 48 h incubation at 30 °C. This assay confirmed that all the effective peptides, NCR335N1–19, NCR335N7–21, NCR335C1–33, NCR335C13–33, NCR335C17–33, NCR169C17–38, NCR169C17–38ox, NCR169C17–38W10,20/A provoked growth inhibition through fungicidal actions (Figure A2). The fungicide concentrations, required for the complete elimination of the Candida cells, were either equal to or twice higher than the minimum inhibitory concentrations presented in Table 2.
The same initial experimental setting was used to determine the fungicide effect of the peptides. Five µL samples were taken from the cultures after 24 h and were added to 95 µL sterile distilled water, and diluted to 10- and 100-fold (indicated as 10^4, 10^3 and 10^2 based on the cell number of the control culture in Figure A2). Five µL from each dilution were placed on solid YPD medium and the growth of the strains was detected after 48 h incubation at 30 °C.

[7] = tested on: C. tropicalis CBS 94 biofilm; assay: Biofilm formation assay, XTT; type: cell-based, Candida tropicalis; details: 72 h, 37 °C, 5 % CO2, 1/8AIM medium, p ≤ 0.0001
Candida auris 0381 = assay: microbe, parasite or virus in culture; type: cell-based; details: micro-dilution, YNB medium, 4 × 10^4 cell/mL, 48 h, 30 °C, OD 620 nm; MIC = growth inhibition ≥90%; peptides 25 to 1.56 µM, fluconazole 200 to 0.78 µM; three biological repeats in triplicates; note: key: -: no growth inhibition was observed
Procedure: as §4, §5, §6

[8] = NCR169C17–38 + NCR169C17–38ox, C. auris
[9] = NCR169C17–38 + NCR335C17–33, C. auris
[10] = checkerboard, C. auris, 72 h, 30 °C, drug A fluconazole + drug B NCR169C17–38

Compound | effect on hyphal growth (C. albicans ATCC 10231) | concentration significantly inhibiting biofilm formation, relative to MIC [1] | morphology of cells in the biofilm [2] | morphology of cells in the biofilm [3] | Action (C. auris; [9]) | effect on hyphal/yeast growth form (C. tropicalis CBS 94) | concentration significantly inhibiting biofilm formation, relative to MIC [4] | concentration significantly inhibiting biofilm formation, relative to MIC [5] | growth inhibition by fungistatic or fungicide action (Candida cells) | concentration significantly inhibiting biofilm formation, relative to MIC [7] | other results
CC[C@H](C)[C@H](NC(=O)[C@H](CCCCN)NC(=O)[C@H](Cc1ccccc1)NC(=O)[C@H](CC(C)C)NC(=O)[C@@H]1CCCN1C(=O)[C@H](CCCCN)NC(=O)[C@H](CCCCN)NC(=O)[C@H](CO)NC(=O)[C@@H](N)CCCCN)C(=O)N[C@@H](Cc1c[nH]c2ccccc12)C(=O)N[C@@H](CCCCN)C(=O)N[C@@H](CS)C(=O)N[C@H](C(=O)N[C@@H](CCC(=O)O)C(=O)N[C@@H](CC(N)=O)C(=O)N[C@H](C(=O)N[C@@H](CS)C(=O)N[C@H](C(=O)N[C@@H](CC(C)C)C(=O)N[C@@H](Cc1c[nH]c2ccccc12)C(=O)N[C@@H](Cc1ccc(O)cc1)C(=O)N[C@@H](CCCCN)C(N)=O)C(C)C)C(C)C)C(C)C [NCR169C17–38] (H-KSKKPLFKIWKCVENVCVLWYK-NH2; N-terminus assumed) | completely inhibited the hyphal growth | one-fourth of the MIC | reduced the abundance of the hyphal form | the cell number was drastically reduced, and the yeast form was also dominant | Synergism | shifted to the yeast form | MIC | half MIC | fungicidal | half MIC | Action (C. auris; [8]): Synergism; reduction of MIC in the synergistic combination (C. auris; [8]): 2 ×; reduction of MIC in the synergistic combination (C. auris; NCR169C17–38 + NCR335C17–33 (3.12 μM), C. auris): 4 ×; concentration of drug A for the indicated action (C. auris; checkerboard, C. auris, 72 h, 30 °C, drug A NCR169C17–38 + drug B NCR169C17–38ox): 3.12 µM; FICB (C. auris; [10]): 0.125; concentration of drug B for the indicated action (C. auris; [10]): 0.78 µM; Action (C. auris; fluconazole + NCR169C17–38, C. auris): Additive; Minimal inhibitory concentration, Cp CBS 604 [6]: -
CC[C@H](C)[C@H](NC(=O)[C@@H]1CCCN1C(=O)[C@@H](NC(=O)[C@H](CS)NC(=O)[C@H](Cc1ccc(O)cc1)NC(=O)[C@H](CO)NC(=O)[C@H](CCCCN)NC(=O)[C@H](CCCNC(=N)N)NC(=O)[C@H](CS)NC(=O)[C@H](CCCNC(=N)N)NC(=O)[C@@H](NC(=O)[C@H](CC(N)=O)NC(=O)[C@H](C)NC(=O)[C@H](CCCNC(=N)N)NC(=O)[C@H](CCCNC(=N)N)NC(=O)[C@H](CC(C)C)NC(=O)[C@@H](N)CCCCN)C(C)C)C(C)C)C(N)=O [NCR335C17–33] (H-KLRRANVRCRKSYCVPI-NH2; N-terminus assumed) | completely inhibited the hyphal growth | half MIC | reduced the abundance of the hyphal form | practically only the yeast form was present | Synergism | shifted to the yeast form | half MIC | half MIC | fungicidal | MIC | concentration of drug B for the indicated action (C. auris; checkerboard, C. auris, 72 h, 30 °C, drug A NCR169C17–38 + drug B NCR335C17–33): 3.12 µM; FICB (C. auris; checkerboard, C. auris, 72 h, 30 °C, drug A NCR169C17–38 + drug B NCR335C17–33, * fictitious value, 25 µM used as MIC of NCR335C17–33): ≤ 0.25; Action (C. auris; fluconazole + NCR335C17–33, C. auris): Indifferent; Minimal inhibitory concentration, Cau 0381 (Candida auris 0381): -
